From ChEMBL document CHEMBL1201862, “PubChem BioAssay data set” (2004) come the findings set out here.

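Assay format: 96-well plates, 48-hour exposure. Abbreviation: GI50, concentration required for 50% inhibition of growth.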 Active and inactive are the calls of the source. Cut-off read from the data, not from the text of the source: active = GI50 up to about 1.1 µM and inactive = higher.

What all share (experiment): NCI-60 cell line screen, 48 h
Experiment [1] concerns EKVX.
The subject of experiment [2] is SF-539.
In experiment [3] the test system is HCC 2998.
The test system of experiment [4] is UO-31.
The test system of experiment [5] is M19-MEL.
In experiment [6] the test system is DLD-1.
Experiment [7] concerns PC-3.
For experiment [8], the system named is BT-549.
In experiment [9] the test system is HCT-116.
For experiment [10], the system named is SN12C.
Experiment [11] relates to A498.
The test system of experiment [12] is MDA-MB-231.
Experiment [13] concerns M14.
The test system of experiment [14] is 786-0.
In experiment [15] the test system is SK-OV-3.
Experiment [16] has as its system CAKI-1.
The subject of experiment [17] is K562.
Experiment [18] has as its system MDA-N.
For experiment [19], the system named is Malme-3M.
In experiment [20] the test system is DMS-273.

Take `CNC1C(O)CC(OC2C/C=C(\C)C/C(C)=C/C=C/CCC(C)CNC(=O)/C=C/C=C/C2C)OC1C` (configuration not stated): the GI50 in experiment [1] is 1.6 µM (inactive); in [2], 0.918 µM (active); in [3], 0.286 µM (active); in experiment [4], 2.85 µM (inactive); in experiment [5], 0.714 µM (active); in experiment [6], 0.26 µM (active). Further, the GI50 is 1.06 µM (active) in experiment [7]; 1.25 µM (inactive) in experiment [8]; 0.278 µM (active) in [9]; 0.82 µM (active) in experiment [10]; 1.72 µM (inactive) in experiment [11]; 0.841 µM (active) in experiment [12]. The GI50 in experiment [13] was 0.24 µM (active); in [14], 0.245 µM (active); in [15], 1.15 µM (inactive); in experiment [16] it was 0.877 µM (active); in experiment [17] it was 0.0995 µM (active); in experiment [18] it was 0.34 µM (active). Moreover, the GI50 was 1.47 µM (inactive) in experiment [19] and 0.188 µM (active) in [20].
For the molecule `CC(C)CC12CC3CCC(CNC1=O)C32C` (configuration not stated), the GI50 in experiment [1], in experiment [2], in [3], in experiment [4], in experiment [5] and in experiment [6] was > 100 µM (inactive) in each case. For the same molecule, the GI50 in experiment [9] was 78.9 µM (inactive); in experiment [10], > 100 µM (inactive); in experiment [11], > 100 µM (inactive); in experiment [13], > 100 µM (inactive); in experiment [14], > 100 µM (inactive); in experiment [15] it was > 100 µM (inactive). For the same molecule, the GI50 in [16] was > 100 µM (inactive); in experiment [17], 43.5 µM (inactive); in experiment [19], > 100 µM (inactive); in [20], > 100 µM (inactive).
In the case of `COc1ccc(/C=C/c2cc(OC)cc(OC)c2)cc1` [TRISMETHOXYRESVERATROL], the GI50 in experiment [1] is > 22.4 µM (inactive); in experiment [2] it was 3.54 µM (inactive); in [3] it was 9.79 µM (inactive); in experiment [4], 18.2 µM (inactive); in experiment [5] it was 6.31 µM (inactive); in experiment [6], 5.28 µM (inactive). Also, the GI50 was 4.17 µM (inactive) in [9]; 9.95 µM (inactive) in experiment [10]; 6.18 µM (inactive) in experiment [11]; 6.53 µM (inactive) in experiment [13]; 9.66 µM (inactive) in [14]; 4.14 µM (inactive) in experiment [15]. The GI50 is 4.6 µM (inactive) in [16], 4.33 µM (inactive) in experiment [17], 6.12 µM (inactive) in experiment [19] and 3.79 µM (inactive) in experiment [20].
